2 sequences from patent US20240293500A1, “PEPTIDE HAVING ANTICANCER ACTIVITY, AND USE THEREOF” (Korea University Research and Business Foundation, priority 2021, published 2024) can be followed below.

Assay [1] deals with MDA-MB-231 triple-negative breast cancer cell line. The experiment in a line: MTT assay, co-treatment of peptide with anticancer agent. It is filed as cell-based. Particulars: for cell proliferation on co-treatment with paclitaxel compared to paclitaxel alone: MDA-MB-231, 1 μM peptide + 5.4 nM paclitaxel (FIGS. 3 and 4). The procedure:
To confirm the cytotoxic and anti-proliferative effect of a peptide discovered in the present invention on cancer cells and normal cells, a 3-(4,5-diemthylthiazolyl-2)-2,5-diphenyltetrazolium bromide (MTT) assay was performed. The MTT assay is a method of measuring the growth of living cells and measuring cell viability using MTT reduction by mitochondrial reductase in living cells.
In addition, peptides and anticancer agents were administered together to the MDA-MB-231 triple-negative breast cancer cell line to explore effects associated with drug co-administration and drug resistance. Triple-negative (ER−/PR−/HER2−) breast cancer is a type of breast cancer that is difficult to treat because it is known to have drug resistance to existing hormone therapy and anticancer drugs, and is a suitable model for research on drug resistance and co-administration.
Cell viability was evaluated by an MTT assay by treating MDA-MB-231 cells with 1 μM of the peptide (No. 1 or 2), and 9 μM abemaciclib or 5.4 nM paclitaxel.

The subject of assay [2] is matrix metallopeptidase 9 (MMP-9). The experiment in a line: MMP-9 expression by RT-PCR. The format is cell-based. Particulars: MDA-MB-231, 1 μM peptide, 24 hours, vs control (FIG. 6). The procedure: MDA-MB-231 cells were cultured and treated with 1 μM of a peptide (No. 1 or 2). After 24 hours, RNA was isolated from the cells and the expression level of matrix metallopeptidase 9 (MMP-9), which is a key cell migration factor, was confirmed through RT-PCR.

Assay [3] deals with extracellular signal-regulated kinase (ERK) protein. As to the kind of experiment: p-ERK level by Western blot. It is filed as cell-based. Particulars: MDA-MB-231, 1 μM peptide, 24 hours, vs control (FIG. 7). The procedure:
In addition, the change in phosphorylation of extracellular signal-regulated kinase (ERK) protein caused by an anticancer peptide was confirmed. ERK gene is an indicator of drug resistance and inhibition of the growth and apoptosis of cancer cells. The MDA-MB-231 cells were cultured and treated with 1 μM of a peptide (No. 1 or 2). After 24 hours, proteins were isolated from the cells, and a p-ERK level was confirmed by Western blot.

The next assay deals with lamin B1 protein. As to the kind of experiment: Lamin B1 cleavage by western blotting (apoptosis marker). The format is cell-based. Particulars: MDA-MB-231, 1 μM peptide, 24 hours, nuclear fraction western blotting (FIG. 8). The method, then: Next, to confirm the relationship between the anticancer peptide and apoptosis, the degree of cleavage of lamin B1 protein was confirmed. Lamin B1 is originally a type of nuclear protein that is degraded by caspase in apoptosis and used as a biomarker of apoptosis. The MDA-MB-231 cells were cultured and treated with 1 μM of a peptide (No. 1 or 2). After 24 hours, the cells were washed with PBS twice, and lysed with lysis buffer containing NP-40. The nucleus and cytoplasm were separated by centrifugation, and western blotting was performed on each nuclear and cytoplasmic fraction. Here, to determine the degree of separation of the nucleus and cytoplasm, α-tubulin, which is a cytoplasmic marker, and lamin B1 were simultaneously analyzed.

The subject of assay [4] is MDA-MB-231 xenograft tumor. As to the kind of experiment: Xenograft tumor model, tumor size. It is filed as in vivo, BALB/c nude mice. Particulars: 2.5 mg/kg intraperitoneally daily, 6 weeks, vs PBS control (FIG. 9). The procedure: A xenograft tumor model was constructed by injecting MDA-MB-231 cells into immunodeficient BALB/c nude mice and forming tumors for 1 week. Mice with tumors were randomly divided into a control and an experimental group. The control and the experimental group were intraperitoneally injected daily with PBS (the same volume as a peptide) and the No. 1 peptide (2.5 mg/kg), respectively, and then observed for a total of 6 weeks. During the experimental period, a tumor size was measured with a digital caliper every week, and the final tumor size was compared at week 6.

With “EKAEEDRYFR (listed as Mus musculus) [No. 1]”, the “cell proliferation on co-treatment with paclitaxel compared to paclitaxel alone” value in assay [1] was “further inhibited”. The “expression of MMP-9” value in assay [2] is given as “significantly reduced”. The p-ERK level entry in assay [3] is listed as “significantly reduced”. For the same sequence, the “cleavage of lamin B1 protein” value in the assay on lamin B1 protein was “cleaved”. Further, the “tumor growth (tumor size)” value in assay [4] was “significant tumor growth inhibitory effect”.
Consider “EQAEEERYFR (listed as Homo sapiens) [No. 2]”, for which the “cell proliferation on co-treatment with paclitaxel compared to paclitaxel alone” value in assay [1] is recorded as “further inhibited”. For the same sequence, in assay [1] (MDA-MB-231, 1 μM peptide + 9 μM abemaciclib (FIG. 4)), the “cell proliferation on co-treatment with abemaciclib compared to abemaciclib alone” value is “further inhibited”. Also, the “expression of MMP-9” value in assay [2] is listed as “significantly reduced”. In addition, the p-ERK level result in assay [3] is on record as “significantly reduced”. Besides, the “cleavage of lamin B1 protein” value in the assay with lamin B1 protein is recorded as “cleaved”.
